From patent US20050250801A1, “Method of treating cancer with azaspirane compositions” (priority 2003, published 2005)
Read-outs that look alike come from different tables or passages of the source.

Columns and labels:
Type in all cases: cell-based
M14 = test: NCI in vitro SRB assay, Melanoma; details: for CC50 / GI50: Homo sapiens
Description: (§1) An in vitro assay which tested the ability of N,N,-diethyl-8,8-dipropyl-2-azaspiro[4,5]decane-2-propanamine dimaleate (Compound 1) to inhibit the growth of known cancer cell lines was performed by the National Cancer Institute in accordance with standard procedures. See: Lin, Z. X., Hoult, J. R., and Raman, A. Sulphorhodamine B assay for measuring proliferation of a pigmented melanocyte cell line and its application to the evaluation of crude drugs used in the treatment of vitiligo. J Ethnopharmacol. 66: 141-150, 1999. Briefly, selected tumor cell lines were cultured in media containing five different concentrations of Compound 1. After 48 hours of continuous exposure, a sulforhodamine B (SRB) assay was used to estimate cell viability or growth via optical measurements.
(§2) From the measurements, the following values were determined: 1) the concentration of Compound 1 at which a tumor cell growth inhibition of 50% (relative to control) occurs (GI50), 2) the concentration of Compound 1 at which no growth occurs (total growth inhibition, TGI), and 3) the concentration of Compound 1 at which the […] (LC 50). […] FIG. 6 illustrates, graphically, tumor cell growth as a function of Compound 1 concentration of the scanned tumor cell lines.

MALME-3M = test: NCI in vitro SRB assay, Melanoma; details: for CC50 / GI50: Homo sapiens, Malme-3M
Description: as §1, §2

SK-MEL-5 = test: NCI in vitro SRB assay, Melanoma; details: for CC50 / GI50: Homo sapiens
Description: as §1, §2

UACC-62 = test: NCI in vitro SRB assay, Melanoma; details: for CC50 / GI50: Homo sapiens
Description: as §1, §2

BT-549 = test: NCI in vitro SRB assay, Breast Cancer
Description: as §1, §2

HS 578T = test: NCI in vitro SRB assay, Breast Cancer; details: for CC50 / GI50: Homo sapiens; for CC50: Hs-578T
Description: as §1, §2

MDA-MB-435 = test: NCI in vitro SRB assay, Breast Cancer; details: for CC50 / GI50: Homo sapiens
Description: as §1, §2

NCI/ADR-RES = test: NCI in vitro SRB assay, Breast Cancer; details: for GI50: Homo sapiens
Description: as §1, §2

[1] = read-out: Log10 LC50 (converted)
[2] = read-out: Log10 GI50 (converted)
[3] = MALME-3M, Log10 conc -4.0 Moles/L
[4] = MALME-3M, Log10 conc -5.0 Moles/L
[5] = MALME-3M, Log10 conc -6.0 Moles/L
[6] = MALME-3M, Log10 conc -7.0 Moles/L
[7] = MALME-3M, Log10 conc -8.0 Moles/L
[8] = SK-MEL-5, Log10 conc -4.0 Moles/L
[9] = SK-MEL-5, Log10 conc -5.0 Moles/L
[10] = SK-MEL-5, Log10 conc -6.0 Moles/L
[11] = SK-MEL-5, Log10 conc -7.0 Moles/L
[12] = SK-MEL-5, Log10 conc -8.0 Moles/L
[13] = UACC-62, Log10 conc -4.0 Moles/L
[14] = UACC-62, Log10 conc -5.0 Moles/L
[15] = UACC-62, Log10 conc -6.0 Moles/L
[16] = UACC-62, Log10 conc -7.0 Moles/L
[17] = UACC-62, Log10 conc -8.0 Moles/L
[18] = BT-549, Log10 conc -4.0 Moles/L
[19] = BT-549, Log10 conc -5.0 Moles/L
[20] = BT-549, Log10 conc -6.0 Moles/L
[21] = BT-549, Log10 conc -7.0 Moles/L
[22] = BT-549, Log10 conc -8.0 Moles/L
[23] = HS 578T, Log10 conc -4.0 Moles/L
[24] = HS 578T, Log10 conc -5.0 Moles/L
[25] = HS 578T, Log10 conc -6.0 Moles/L
[26] = HS 578T, Log10 conc -7.0 Moles/L
[27] = HS 578T, Log10 conc -8.0 Moles/L
[28] = MDA-MB-435, Log10 conc -4.0 Moles/L
[29] = MDA-MB-435, Log10 conc -5.0 Moles/L
[30] = MDA-MB-435, Log10 conc -6.0 Moles/L
[31] = MDA-MB-435, Log10 conc -7.0 Moles/L
[32] = MDA-MB-435, Log10 conc -8.0 Moles/L

## CCCC1(CCC)CCC2(CCN(CCCN(CC)CC)C2)CC1.O=C(O)/C=C\C(=O)O.O=C(O)/C=C\C(=O)O [Compound 1, N,N,-diethyl-8,8-dipropyl-2-azaspiro[4,5]decane-2-propanamine dimaleate]
M14; M14, read-out: LC50
  CC50: 1800 nM
M14; M14, read-out: Log10 LC50 (converted)
  CC50: 1820 nM
M14; M14, read-out: GI50
  GI50: 203 nM
M14; M14, read-out: Log10 GI50 (converted)
  GI50: 204 nM
M14; M14
  Log10 TGI: −6.32
  TGI: 477 nM
M14; M14, Log10 conc -4.0 Moles/L
  Mean Optical Densities: 0.109
  Percent Growth: −61%
M14; M14, Log10 conc -5.0 Moles/L
  Mean Optical Densities: 0.086
  Percent Growth: −69%
M14; M14, Log10 conc -6.0 Moles/L
  Mean Optical Densities: 0.158
  Percent Growth: −43%
M14; M14, Log10 conc -7.0 Moles/L
  Mean Optical Densities: 0.838
  Percent Growth: 92%
M14; M14, Log10 conc -8.0 Moles/L
  Mean Optical Densities: 0.884
  Percent Growth: 99%
MALME-3M; read-out: LC50
  CC50: 5900 nM
MALME-3M; [1]
  CC50: 5890 nM
MALME-3M; read-out: GI50
  GI50: 1600 nM
MALME-3M; [2]
  GI50: 1580 nM
MALME-3M; MALME-3M
  Log10 TGI: −5.51
  TGI: 3070 nM
MALME-3M; [3]
  Mean Optical Densities: 0.084
  Percent Growth: −91%
MALME-3M; [4]
  Mean Optical Densities: 0.089
  Percent Growth: −91%
MALME-3M; [5]
  Mean Optical Densities: 1.108
  Percent Growth: 86%
MALME-3M; [6]
  Mean Optical Densities: 1.047
  Percent Growth: 55%
MALME-3M; [7]
  Mean Optical Densities: 1.103
  Percent Growth: 84%
SK-MEL-5; SK-MEL-5, read-out: LC50
  CC50: 5250 nM
SK-MEL-5; SK-MEL-5, read-out: Log10 LC50 (converted)
  CC50: 5250 nM
SK-MEL-5; SK-MEL-5, read-out: GI50
  GI50: 1280 nM
SK-MEL-5; SK-MEL-5, read-out: Log10 GI50 (converted)
  GI50: 1290 nM
SK-MEL-5; SK-MEL-5
  Log10 TGI: −5.59
  TGI: 2590 nM
SK-MEL-5; [8]
  Mean Optical Densities: −0.001
  Percent Growth: −100%
SK-MEL-5; [9]
  Mean Optical Densities: 0.021
  Percent Growth: −96%
SK-MEL-5; [10]
  Mean Optical Densities: 1.420
  Percent Growth: 68%
SK-MEL-5; [11]
  Mean Optical Densities: 1.797
  Percent Growth: 95%
SK-MEL-5; [12]
  Mean Optical Densities: 1.779
  Percent Growth: 93%
UACC-62; UACC-62, read-out: LC50
  CC50: 2530 nM
UACC-62; UACC-62, read-out: Log10 LC50 (converted)
  CC50: 2510 nM
UACC-62; UACC-62, read-out: GI50
  GI50: 218 nM
UACC-62; UACC-62, read-out: Log10 GI50 (converted)
  GI50: 219 nM
UACC-62; UACC-62
  Log10 TGI: −6.19
  TGI: 642 nM
UACC-62; [13]
  Mean Optical Densities: 0.060
  Percent Growth: −89%
UACC-62; [14]
  Mean Optical Densities: 0.034
  Percent Growth: −94%
UACC-62; [15]
  Mean Optical Densities: 0.421
  Percent Growth: −21%
UACC-62; [16]
  Mean Optical Densities: 1.379
  Percent Growth: 86%
UACC-62; [17]
  Mean Optical Densities: 1.375
  Percent Growth: 85%
BT-549; BT-549
  TGI: 3230 nM
BT-549; BT-549 (so in the source)
  Log10 TGI: −5.39
BT-549; [18]
  Mean Optical Densities: 0.007
  Percent Growth: −98%
BT-549; [19]
  Mean Optical Densities: 0.027
  Percent Growth: −94%
BT-549; [20]
  Mean Optical Densities: 0.856
  Percent Growth: 98%
BT-549; [21]
  Mean Optical Densities: 0.904
  Percent Growth: 109%
BT-549; [22]
  Mean Optical Densities: 0.859
  Percent Growth: 98%
BT-549; Homo sapiens, BT-549, read-out: LC50
  CC50: 5890 nM
BT-549; Homo sapiens, BT-549, read-out: GI50
  GI50: 1770 nM
BT-549; Homo sapiens, BT-549 (so in the source), read-out: Log10 GI50 (converted)
  GI50: 1700 nM
HS 578T; HS 578T
  TGI: 3960 nM
HS 578T; HS 578T (so in the source)
  Log10 TGI: −6.09
HS 578T; [23]
  Mean Optical Densities: 0.264
  Percent Growth: −62%
HS 578T; [24]
  Mean Optical Densities: 0.269
  Percent Growth: −61%
HS 578T; [25]
  Mean Optical Densities: 1.217
  Percent Growth: 91%
HS 578T; [26]
  Mean Optical Densities: 1.258
  Percent Growth: 98%
HS 578T; [27]
  Mean Optical Densities: 1.206
  Percent Growth: 89%
HS 578T; read-out: LC50
  CC50: 8430 nM
HS 578T; [1]
  CC50: 6170 nM
HS 578T; HS 578T (so in the source), read-out: Log10 GI50 (converted)
  GI50: 269 nM
HS 578T; HS 578T, read-out: GI50
  GI50: 1860 nM
MDA-MB-435; MDA-MB-435, read-out: LC50
  CC50: 6190 nM
MDA-MB-435; MDA-MB-435, read-out: Log10 LC50 (converted)
  CC50: 5890 nM
MDA-MB-435; MDA-MB-435, read-out: GI50
  GI50: 267 nM
MDA-MB-435; MDA-MB-435 (so in the source), read-out: Log10 GI50 (converted)
  GI50: 1780 nM
MDA-MB-435; MDA-MB-435
  TGI: 807 nM
MDA-MB-435; MDA-MB-435 (so in the source)
  Log10 TGI: −5.49
MDA-MB-435; [28]
  Mean Optical Densities: 0.244
  Percent Growth: −58%
MDA-MB-435; [29]
  Mean Optical Densities: 0.230
  Percent Growth: −61%
MDA-MB-435; [30]
  Mean Optical Densities: 0.528
  Percent Growth: −10%
MDA-MB-435; [31]
  Mean Optical Densities: 1.517
  Percent Growth: 94%
MDA-MB-435; [32]
  Mean Optical Densities: 1.613
  Percent Growth: 104%
NCI/ADR-RES
  Log10 TGI: −5.40
  TGI: 3950 nM
NCI/ADR-RES; read-out: GI50
  GI50: 1830 nM
NCI/ADR-RES; [2]
  GI50: 1820 nM
NCI/ADR-RES; Log10 conc -4.0 Moles/L
  Mean Optical Densities: 0.081
  Percent Growth: −85%
NCI/ADR-RES; Log10 conc -5.0 Moles/L
  Mean Optical Densities: 0.208
  Percent Growth: −61%
NCI/ADR-RES; Log10 conc -6.0 Moles/L
  Mean Optical Densities: 1.220
  Percent Growth: 89%
NCI/ADR-RES; Log10 conc -7.0 Moles/L
  Mean Optical Densities: 1.227
  Percent Growth: 90%
NCI/ADR-RES; Log10 conc -8.0 Moles/L
  Mean Optical Densities: 1.254
  Percent Growth: 94%
